In patent publication US20090269795A1, “Mutant alpha4betadelta GABAA receptor and methods of treating anxiety or irritability” (priority 2007, published 2009):
Where a name gives a salt, the structure may show the parent alone.

Key:
[1] = test system: CA1 hippocampal pyramidal cells; experiment: Input resistance and neuronal excitability (spiking), hippocampal slice; type: cell-based, mouse; details: puberty
Protocol: Tonic current was recorded as the difference current produced by 120 μM gabazine, which blocks all GABAA receptor, before and after 30 nM THP^24. Current was also recorded in response to 2 s 10 mV steps in the holding potential, and current-voltage curves generated to the steady-state current. Because fast-inactivating conductances would not be excluded in a voltage ramp, stable steady-state current responses were used instead to construct the current-voltage (IV) curves. Input resistance (Rm) was calculated from the current response to voltage steps from −60 to −40 mV using Ohm's Law. The reversal potential was determined by the […] of the IV curve (−90 to −10 mV). The gabazine-sensitive slope conductance was assessed as the slope of the linear portion of outward current plot recorded before and after THP after subtraction of the gabazine-generated current (in the presence of L-655,708 to block α5-GABAA receptors). Only data with a stable baseline and pipet access resistance <10 MΩ were included in the analysis.
Effects of THP on cell excitability were tested by monitoring spiking using cell attached patch recordings^31 in voltage clamp mode (−40 mV holding potential, 150 mM NaCl intrapipet solution) or assessing the current threshold to spiking and spike frequency in current clamp mode (0.01-0.3 nA steps, starting from −1 nA, 1 s duration). (More complete details are supplied in the Supplementary Methods.)

[2] = test system: CA1 hippocampal pyramidal cells (α4βδ receptors); experiment: La3+-sensitive gaboxadol-induced current, whole cell patch clamp, hippocampal slice; type: cell-based, mouse; details: 30 μM GBX, after puberty or THP Wd
[3] = test system: CA1 hippocampal pyramidal cell dendrites; experiment: Tight-seal cell-attached current-clamp recording during dendritic agonist application; type: cell-based, mouse; details: 5 μM; stratum radiatum; pubertal
Protocol: Tonic current was recorded as the difference current produced by the selective GABAA receptor antagonist gabazine (120 μM) before and after 30 nM THP^4,29, while gramicidin perforated-patch recordings^33 were accomplished using 140 mM KCl plus 25 μg ml^−1 gramicidin in the pipet solution, recorded when the access resistance dropped to <60 MΩ after tight seal formation. Estimates of the direction of Cl^− current were obtained by recording using tight-seal cell-attached techniques^31 (>1 GΩ seal) in current clamp mode. A downward deflection signified outward (i.e., hyperpolarizing) Cl^− current.
To determine whether THP inhibition of GABAergic currents at puberty was a physiological phenomenon, we initially verified that GABA-gated currents were outward in CA1 hippocampal pyramidal cell dendrites at the onset of puberty. […] The voltage change was recorded in current clamp mode from the soma using tight-seal cell attached techniques at a holding current of 0 pA^31.

α4β2δ GABAA receptors = experiment: Whole cell patch clamp of GABA-gated current, recombinant receptors in HEK-293 cells; type: cell-based, human or mouse α4, rat β2, human δ
Description: (§1) Recombinant receptors: Transfection—Plasmids obtained from S. Vicini (rat α1, α5, β2, β3 and γ2), P. Whiting (human α4 and δ) and N. L. Harrison (mouse α4) were propagated in E coli DH5α and prepared using Qiagen Maxi- or Midi-prep kits. (Rat, mouse and human α1, β2, β3 and γ2 subunits are identical or nearly identical.) All receptors were transfected at a 1:1:1 ratio, except α1β2γ2 (1:1:5)^12, α4βδ (5:1:5)^13 and α4β2γ2 (5:1:1). HEK-293 cells were maintained in medium (DMEM:Ham's F-12 1:1) supplemented with 10% fetal calf serum at 37° C. in a humid 5% CO2 atmosphere. Cells were transfected using calcium phosphate or Polyfect (Qiagen) and co-transfected with enhanced green fluorescent protein (ratio of DNA to eGFP was 6:1 or 10:1 depending on the DNA concentration) for visualization. α4-containing GABAA receptors required 2-3 d for maximal levels of expression; all other receptors were recorded 1-2 d after transfection. Because mouse α4 and human α4-containing receptors yielded the same results, the currents were averaged together.
Whole cell patch clamp recording—GABA-gated currents were recorded at room temperature (20-22° C.) at a holding potential of −50 mV^14. The pipet solution contained (in mM): N-methyl-D-glucamine chloride 120, Cs4BAPTA 5 (Calbiochem), Mg-ATP 5, and an ATP regeneration system (20 mM Tris phosphocreatine and creatine kinase). Internal [Cl^−] or the holding potential were varied, using gluconate as the anion, to alter the direction of Cl^− flow, corrected for the junction potential. In some cases, current-voltage curves were constructed using the peak current response to agonist or agonist+THP across a range of holding potentials (−60 to +60) applied as 10 mV steps, or as a voltage ramp. […] Traces are presented as the average of 3 traces after subtraction of the leak current. […] This rapid application technique yields currents with a rapid rise phase. THP was also bath applied 30 s prior to tests of steroid effects. Currents were recorded using an Axopatch 1D amplifier (Axon Instruments) filtered at 2 kHz (four-pole Bessel filter) and detected at 10 kHz (pClamp 5.1). Analysis of peak current was accomplished with pClamp 9.2 and Origin software (Microcal).
Following the recording, the patch was blown out, and the open tip potential recorded using solutions with a 5% difference in NaCl osmolarity to verify the approximate solution exchange time. The time constant (τ) for desensitization was approximated using non-linear curve fitting routines with Levenburg-Marquardt algorithms (Origin software, Microcal). Goodness of fit was determined by minimizing the sum of the squares of deviations of the theoretical curve from the experimental points.
Recombinant receptors: Human embryonic kidney (HEK)-293 cells were transfected with α4 β2δ or other indicated subunit combinations (see Supplementary Methods) and co-transfected with enhanced green fluorescent protein for visualization. GABA-gated currents were recorded at room temperature (20-22° C.) at a holding potential of −50 mV^17 using a pipet solution containing 120 mM: N-methyl-D-glucamine chloride. Internal [Cl^−] or the holding potential were varied to alter the direction of Cl^− flow. […] Currents were recorded using an Axopatch 1D amplifier (Axon Instruments) filtered at 2 kHz (four-pole Bessel filter), detected at 10 kHz and analyzed with pClamp 9.2. Desensitization rate was determined using non-linear curve-fitting routines (Origin, Microcal; see next section).
Further Studies with Recombinant receptors: Transfection—Plasmids obtained from S. Vicini (rat α1, α5, β2, β3 and y2), P. Whiting (human α4 and 6) and N. L. Harrison (mouse α4) were propagated in E coli DH5α and prepared using Qiagen Maxi- or Midi-prep kits. (Rat, mouse and human α1, β2, β3 and γ2 subunits are identical or nearly identical.) All receptors were transfected at a 1:1:1 ratio, except a132γ2 (1:1:5)^12, α4β28 (5:1:5)^13 and α4β2γ2 (5:1:1). […]

α4β2γ2 receptors = experiment: as above; type: cell-based, human or mouse α4, rat β2, rat γ2
Description: as §1
Whole cell patch clamp recording—GABA-gated currents were recorded at room temperature (20-22° C.) at a holding potential of −50 mV^14. […] Currents were recorded using an Axopatch 1D amplifier (Axon Instruments) filtered at 2 kHz (four-pole Bessel filter) and detected at 10 kHz (pClamp 5.1). […]

female C57BL6 mice = experiment: Elevated plus maze (with or without restraint stress); type: in vivo, mouse; details: pre-administration before restraint stress; pubertal
Description: Animal subjects. Prepubertal and pubertal female C57BL6 mice (3½-6 weeks old, +/+ and δ^−/−1) were housed in a reverse light:dark cycle (12:12). Both sets of mice were originally supplied by G. Homanics (Univ. of Pittsburgh), and were bred on site, with +/+ mice supplemented from Jackson Laboratories (Bar Harbor, Me.). Initially, age-matched+/+littermates of the δ^−/−were used as controls, but because they were indistinguishable from C57BL6, data from both groups were pooled. Genotyping of the tails verified that mice were homozygous δ^−/−. Some animals (+/+ or δ^−/−) were injected with finasteride (1,(5α)-androstene-4-aza-3-one-N-tert-butyl-17β-carboxaminde, Steraloids, 50 mg kg^, −1 intraperitoneally, 3 days) to block THP synthesis^2 or oil vehicle on a daily basis 1-1.5 h before dark onset, when THP levels increase, and tested 30 min. later. The onset of puberty was determined by vaginal opening, and pubertal mice tested on the day of first metestrus, identified by vaginal morphology and verification of first estrus the previous day. Mice with vaginal smears representative of diestrus were excluded from the study. Individual stages of puberty were not distinguished, and pre-pubertal mice were used before any visible signs of pubertal development, assessed by development of the peri-vaginal area. In some cases, pubertal mice were injected with replacement THP (3α-OH-5β-pregnan-20-one, 10 mg kg^−1, intraperitoneally in oil) for three days before testing. Procedures were in accordance with the SUNY Downstate Institutional Animal Care and Use Committee.
Restraint stress. In order to test the effect stress-induced release of THP^6,46,47 on anxiety, mice were restrained in a clear Plexiglas tube-type holder (Harvard Apparatus) for 45 min. and tested 20 min. later on the elevated plus maze (see Supplementary Methods). Open arm time was evaluated for 5 min. on the elevated plus maze. A decrease in open arm time reflects an increase in anxiety^18. In all cases, the results from each mouse tested after restraint was expressed relative to the averaged results from the sham controls, which were identical to the stressed animals (age, genotype, sex, drug-injected), except that they were not subjected to restraint stress.
Elevated plus maze. Testing rodent behavior on the elevated plus maze is an established animal model of anxiety^31. The plus maze consists of four 8×35 cm arms at 90° angles, elevated 57 cm above the floor. Two arms are enclosed by 33 cm walls, and two arms have no walls (“open arms”). […] Each animal was initially acclimated to the room for 30 min-1 h before being placed in the center of the maze, and exploratory activity recorded for 5 min. […]

hippocampal THP levels = experiment: Radioimmunoassay of hippocampal 3α,5α-THP levels; type: in vivo, mouse; details: administration of 5α-reductase blocker
Description: Animal subjects. Prepubertal and pubertal female C57BL6 mice (3½-6 weeks old, +/+ and δ^−/−1) were housed in a reverse light:dark cycle (12:12). Both sets of mice were originally supplied by G. Homanics (Univ. of Pittsburgh), and were bred on site, with +/+ mice supplemented from Jackson Laboratories (Bar Harbor, Me.). Initially, age-matched+/+littermates of the δ^−/−were used as controls, but because they were indistinguishable from C57BL6, data from both groups were pooled. Genotyping of the tails verified that mice were homozygous δ^−/−. […] The onset of puberty was determined by vaginal opening, and pubertal mice tested on the day of first metestrus, identified by vaginal morphology and verification of first estrus the previous day. […] Individual stages of puberty were not distinguished, and pre-pubertal mice were used before any visible signs of pubertal development, assessed by development of the peri-vaginal area. […]
Radioimmunoassay for 3α,5α-THP. Hippocampal levels of 3α,5α-THP were assessed by radioimmunoassay (RIA) by C. […] Sample tube concentrations were calculated using the logit-log method^6, interpolation of the standards, and correction for recovery. […]

CCN(c1ccccc1)c1cc(=NC)n(C)c(C)n1.Cl [ZD 7288]
effect of Ih blockade on excitatory effect of THP ([1]; 20 μM ZD 7288): did not prevent the excitatory effect of THP

COc1ccc(-c2ccc(=N)n(CCCC(=O)O)n2)cc1 [gabazine, 6-imino-3-(4-methyoxyphenyl)-1 (6H)-pyridazinebutanoic acid hydrobromide]
effect on THP-induced increase of input resistance ([1]; 120 μM gabazine pre-applied): prevented

[La+3] [La^3+]
reduction of GBX-generated current ([2]; 300 μM La3+): 50-70%

Oc1noc2c1CCNC2 [gaboxadol, 4,5,6,7-Tetrahydroisoxazolo[5,4-c]pyridin-3-ol]
GBX-generated current vs pre-pubertal slices [2]: significantly larger current | change in membrane potential on dendritic application [3]: downward shift of the membrane potential

NCCCC(=O)O [GABA]
GABA EC20 (α4β2δ GABAA receptors): […] | GABA EC75 (α4β2δ GABAA receptors): […] | GABA EC20 (α4β2γ2 receptors): 5000 nM

CC(=O)[C@H]1CC[C@H]2[C@@H]3CC[C@H]4C[C@@H](O)CC[C@]4(C)[C@H]3CC[C@]12C (single isomer, unassigned; isomer 3) [3β-OH isomer, 3βOH-5α[β]-pregnan-20-one]
inhibitory effect on outward GABA-gated current (α4β2δ GABAA receptors; isomer selectivity, FIG. 1e): selective for the active 3α-OH isomer, but not the inactive 3,3-OH isomer | effect on stress-induced increase in anxiety (female C57BL6 mice): prevented the stress-induced increase in anxiety

CC(C)(C)NC(=O)[C@H]1CC[C@H]2[C@@H]3CC[C@H]4NC(=O)C=C[C@]4(C)[C@H]3CC[C@]12C [5α-reductase blocker, 1,(5α)-androstene-4-aza-3-one-N-tert-butyl-17β-carboxaminde]
decline in hippocampal THP levels (hippocampal THP levels): 58±10%
